The results in this text go back to patent US10851064B2, “ACSS2 inhibitors and methods of use thereof” (METABOMED LTD., priority 2017, dated 2020).

Structures are written as SMILES. “And” between values parts separate entries of the source, which are not always exact repeats. Equal values may be shown once.
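Further: Cell-free human ACSS2 enzyme reaction with acetate, CoA and ATP, 90 min at 37 C, coupled to pyrophosphatase, phosphate release detected by Biomol Green absorbance at 620 nm.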

ACSS2, sequence (Q9NR19 whole entry): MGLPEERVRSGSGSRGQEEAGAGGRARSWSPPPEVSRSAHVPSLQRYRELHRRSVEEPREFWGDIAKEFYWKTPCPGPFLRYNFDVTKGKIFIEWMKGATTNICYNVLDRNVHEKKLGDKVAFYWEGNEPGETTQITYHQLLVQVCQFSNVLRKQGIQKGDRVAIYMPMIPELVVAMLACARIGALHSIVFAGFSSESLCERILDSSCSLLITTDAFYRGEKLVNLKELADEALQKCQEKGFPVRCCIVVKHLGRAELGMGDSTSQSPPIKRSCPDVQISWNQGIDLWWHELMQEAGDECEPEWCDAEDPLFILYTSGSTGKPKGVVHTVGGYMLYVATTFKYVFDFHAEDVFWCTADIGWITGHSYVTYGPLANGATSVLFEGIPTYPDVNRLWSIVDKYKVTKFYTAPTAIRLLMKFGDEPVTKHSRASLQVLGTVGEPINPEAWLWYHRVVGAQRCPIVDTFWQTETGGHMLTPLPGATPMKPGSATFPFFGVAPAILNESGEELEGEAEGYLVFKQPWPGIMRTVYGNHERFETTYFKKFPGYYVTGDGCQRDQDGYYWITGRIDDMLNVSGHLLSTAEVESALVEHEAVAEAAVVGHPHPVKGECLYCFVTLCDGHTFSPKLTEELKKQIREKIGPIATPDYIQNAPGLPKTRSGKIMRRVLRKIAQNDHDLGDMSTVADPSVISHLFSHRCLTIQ

The test addresses ACSS2 (Homo sapiens, UniProt Q9NR19). The test is described as follows: biochemical.
The molecule `CC1=NN(c2ccccc2)C(=O)C1C(=O)Nc1nccn1C` (stereo not shown) [compound 268] came in with a 50% inhibitory concentration (IC50) of 1000 to 100000 nM. In the case of `CC1=NN(c2ccccc2)C(=O)C1C(=O)NC1CCOCC1` (stereo not shown) [compound 112, 3-methyl-5-oxo-1-phenyl-N-(tetrahydro-2H-pyran-4-yl)-4,5-dihydro-1H-pyrazole-4-carboxamide], the half-maximal inhibitory concentration (IC50) was 1000 to 100000 nM.

In the case of `CCc1cccc(NC(=O)C2C(=O)N(c3ccc(NC(=O)N(C)C)cc3)N=C2C)c1` (stereo not shown) [compound 155, 1-(4-(3,3-dimethylureido)phenyl)-N-(3-ethylphenyl)-3-methyl-5-oxo-4,5-dihydro-1H-pyrazole-4-carboxamide], the half-maximal inhibitory concentration (IC50) fell in the range of 100 to 1000 nM.

As to `N#Cc1ccc(OCCNC(=O)c2cccc(C(O)CO)c2)cc1` (stereo not shown) [compound 179], the IC50 is 1000 to 100000 nM. In the case of `CC(=O)c1cccc(NC(=O)C2C(=O)N(c3ccc(C(=O)O)cc3)N=C2C)c1` (stereo not shown) [compound 120, 4-(4-((3-acetylphenyl)carbamoyl)-3-methyl-5-oxo-4,5-dihydro-1H-pyrazol-1-yl)benzoic acid] it was 100 to 1000 nM. In the case of `CC1=NN(c2ccc3ccn(-c4ccccc4)c3c2)C(=O)C1C(=O)Nc1cccc(C(C)(F)F)c1` (stereo not shown) [compound 361], the half-maximal inhibitory concentration (IC50) lay within 0.01 to 6 nM.

Molecule `CCC(F)(F)c1cccc(NC(=O)C2C(=O)N(c3ccc(OC(F)F)c(-c4ccccn4)c3)N=C2C)c1` (stereo not shown) [compound 377] returned an IC50 of 0.01 to 6 nM. Next, `COc1ccc(N2N=C(C)C(C(=O)Nc3cccc(C(C)(F)F)c3)C2=O)cc1-c1cncnc1` (stereo not shown) [compound 442]: 0.01 to 6 nM; `CC1=NN(c2ccccc2)C(=O)C1C(=O)Nc1cccc(-c2ccon2)c1` (stereo not shown) [compound 239]: 1000 to 100000 nM; `CC1=NN(c2ccc(B(O)O)cc2)C(=O)C1C(=O)Nc1cccc(C(C)(F)F)c1` (stereo not shown) [compound 421]: 0.01 to 6 nM. Next, `COc1ccc(N2N=C(C)C(C(=O)Nc3cccc(-c4ncco4)c3)C2=O)cn1` (stereo not shown) [compound 245]: 6 to 100 nM; `CC1=NN(c2cc(Br)cc(Cc3ccccc3Cl)c2)C(=O)C1C(=O)Nc1cccc(C(C)(F)F)c1` (stereo not shown) [compound 412]: 0.01 to 6 nM.

As to `CC1=NN(c2ccc(OC3CCCC3)cc2)C(=O)C1C(=O)Nc1cccc(C(C)(F)F)c1` (stereo not shown) [compound 446], the IC50 is 0.01 to 6 nM.

`CC1=NN(c2cccc(C#CCNC(=O)COCCOCCOCCOCCOCC(=O)Nc3cccc4c3C(=O)N(C3CCC(=O)NC3=O)C4=O)c2)C(=O)C1C(=O)Nc1cccc(C(C)(F)F)c1` (stereo not shown) [compound 378] yielded a 50% inhibitory concentration (IC50) of 0.01 to 6 nM.

Take `Cc1nn(-c2ccc(OC(F)F)cc2)cc1C(=O)Nc1cccc(C(C)(F)F)c1` [compound 338]: the IC50 lay in the range of 6 to 100 nM.

`CC1=NN(c2ccc(OC(F)F)cc2)C(=O)C1C(=O)N(C)c1cc(Cl)c(F)c(Cl)c1` (stereo not shown) [compound 391] came in with an IC50 of 100 to 1000 nM. `COc1ccc(N2N=C(C)C(C(=O)Nc3cccc(C(C)(F)F)c3)C2=O)cc1-c1ccccn1` (stereo not shown) [compound 434] came in with a half-maximal inhibitory concentration (IC50) of 0.01 to 6 nM. In the case of `CC1=NN(c2ccc(Cc3ccccc3)c(-c3cccnc3)c2)C(=O)C1C(=O)Nc1cccc(C(C)(F)F)c1` (stereo not shown) [compound 374] it was 0.01 to 6 nM; in that of `CC1=NN(c2ccc(OC(C)C)cc2)C(=O)C1C(=O)Nc1cccc(C(C)(F)F)c1` (stereo not shown) [compound 447], 0.01 to 6 nM. `CC1=NN(c2cc(Cc3ccc(Cl)cc3)cc(-c3cccnc3)c2)C(=O)C1C(=O)Nc1cccc(C(C)(F)F)c1` (stereo not shown) [compound 384] returned a half-maximal inhibitory concentration (IC50) of 6 to 100 nM. Next, `CC1=NN(c2ccc(OC(F)F)c(-c3ccccn3)c2)C(=O)C1C(=O)Nc1cccc(C(C)(F)F)c1` (stereo not shown) [compound 438]: 0.01 to 6 nM; `CC1=NN(c2ccc3[nH]ccc3c2)C(=O)C1C(=O)Nc1cccc(C(C)(F)F)c1` (stereo not shown) [compound 419]: 0.01 to 6 nM. Next, `CC1=NN(c2ccccc2)C(=O)C1C(=O)Nc1cccc(-c2cccs2)c1` (stereo not shown) [compound 101, 3-methyl-5-oxo-1-phenyl-N-(3-(thiophen-2-yl)phenyl)-4,5-dihydro-1H-pyrazole-4-carboxamide]: 6 to 100 nM. Next, `CCc1cccc(NC(=O)C2C(=O)N(c3ccc4cccnc4c3)N=C2C)c1` (stereo not shown) [compound 267]: 6 to 100 nM; `CC1=NN(c2cccc(C(=O)OC(C)C)c2)C(=O)C1C(=O)Nc1cccc(-c2ncco2)c1` (stereo not shown) [compound 238]: 6 to 100 nM; `CC1=NN(c2ccc(OC(F)(F)F)cc2)C(=O)C1C(=O)Nc1csc(C(C)(F)F)c1` (stereo not shown) [compound 295]: 6 to 100 nM. In turn, `CC(O)(c1ccccc1)c1cccc(NC(=O)C2C=NN(c3ccc(OC(F)F)cc3)C2=O)c1` (stereo not shown) [compound 416] came in with an IC50 of 6 to 100 nM. In the case of `CC1=NN(c2ccc(OC(F)F)cc2)C(=O)C1C(=O)N(C)c1cccc(Cl)c1` (stereo not shown) [compound 395] it was 100 to 1000 nM; in that of `CC1=NN(c2ccccc2)C(=O)C1C(=O)Nc1cccc(C2CCCC2)c1` (stereo not shown) [compound 146, N-(3-cyclopentylphenyl)-3-methyl-5-oxo-1-phenyl-4,5-dihydro-1H-pyrazole-4-carboxamide], 100 to 1000 nM; in that of `CC1=NN(c2ccc(OC(F)F)cc2)C(=O)C1C(=O)Nc1ccc2cc[nH]c2c1` (stereo not shown) [compound 349], 100 to 1000 nM. In turn, `COc1cc(N2N=C(C)C(C(=O)Nc3cccc(C(C)(F)F)c3)C2=O)ccc1OC(F)F` (stereo not shown) [compound 454] yielded a half-maximal inhibitory concentration (IC50) of 0.01 to 6 nM. In the case of `COc1ccc(N2N=C(C)C(C(=O)Nc3cccc(C(C)(F)F)c3)C2=O)c(C)c1` (stereo not shown) [compound 302] it was 100 to 1000 nM.

Turning to `CC1=NN(c2ccc(OC(F)F)cc2)C(=O)C1C(=O)Nc1cc(C(C)(F)F)ccc1CO` (stereo not shown) [compound 459], the IC50 lay within 0.01 to 6 nM. Next, `CC1=NN(c2ccc(OC(F)F)cc2)C(=O)C1C(=O)Nc1cc(C(C)(F)F)cc2c1COC2` (stereo not shown) [compound 397]: 100 to 1000 nM and 6 to 100 nM; `CC1=NN(c2ccc(OC(F)F)c(-c3cnccn3)c2)C(=O)C1C(=O)Nc1cccc(C(C)(F)F)c1` (stereo not shown) [compound 437]: 0.01 to 6 nM.

`CCC(F)(F)c1cccc(NC(=O)C2C(=O)N(c3ccc(OC)cc3)N=C2C)c1` (stereo not shown) [compound 435] displayed an IC50 of 0.01 to 6 nM.

`CC1=NN(c2ccccc2)C(=O)C1C(=O)Nc1ccncc1` (stereo not shown) [compound 216, 3-methyl-5-oxo-1-phenyl-N-(pyridin-4-yl)-4,5-dihydro-1H-pyrazole-4-carboxamide] returned an IC50 of 1000 to 100000 nM.

Molecule `CC1=NN(c2ccccc2)C(=O)C1C(=O)Nc1cccc(C)c1` (stereo not shown) [compound 212, 3-methyl-5-oxo-1-phenyl-N-(m-tolyl)-4,5-dihydro-1H-pyrazole-4-carboxamide] displayed an IC50 of 1000 to 100000 nM. On to `CC1=NN(c2cc(-c3ccccc3)cc(-c3cccnc3)c2)C(=O)C1C(=O)Nc1cccc(C(C)(F)F)c1` (stereo not shown) [compound 390], for which the IC50 fell in the range of 0.01 to 6 nM. In the case of `CC1=NN(c2ccccc2)C(=O)C1C(=O)Nc1ccccc1` (stereo not shown) [compound 182, 3-methyl-5-oxo-N,1-diphenyl-4,5-dihydro-1H-pyrazole-4-carboxamide] it was 1000 to 100000 nM. In the case of `COc1ccc(N2N=C(C)C(C(=O)Nc3cccc(C(C)(F)F)c3)C2=O)cc1O` (stereo not shown) [compound 281] it was 0.01 to 6 nM; in that of `COc1ccc(N2N=C(C)C(C(=O)Nc3cccc(C(C)(F)F)c3)C2=O)cc1-c1ccc(-c2ccccc2)cc1` (stereo not shown) [compound 396], 6 to 100 nM. Next, `CC1=NN(c2ccc(OC(F)F)c(-c3ncco3)c2)C(=O)C1C(=O)Nc1cccc(C(C)(F)F)c1` (stereo not shown) [compound 355]: 0.01 to 6 nM; `COc1c(-c2ccccc2)cc(N2N=C(C)C(C(=O)Nc3cccc(C(C)(F)F)c3)C2=O)cc1-c1ccccc1` (stereo not shown) [compound 402]: 6 to 100 nM; `CC1=NN(c2ccc(C(F)(F)F)cc2)C(=O)C1C(=O)Nc1ccccc1` (stereo not shown) [compound 201, 3-methyl-5-oxo-N-phenyl-1-(4-(trifluoromethyl)phenyl)-4,5-dihydro-1H-pyrazole-4-carboxamide]: 1000 to 100000 nM. Turning to `N#Cc1ccc(OCCNC(=O)C(N)c2ccccc2)cc1` (stereo not shown) [compound 180], the IC50 is above 100000 nM. As to `CCc1cccc(NC(=O)C2C(=O)N(c3ccc(OCC4CC4)cc3)N=C2C)c1` (stereo not shown) [compound 143, 1-(4-(cyclopropylmethoxy)phenyl)-N-(3-ethylphenyl)-3-methyl-5-oxo-4,5-dihydro-1H-pyrazole-4-carboxamide], the IC50 is 6 to 100 nM. Next, `CC1=NN(c2ccc(OC(F)F)c(-c3ccncc3)c2)C(=O)C1C(=O)Nc1cccc(C(C)(F)F)c1` (stereo not shown) [compound 450]: 0.01 to 6 nM; `CC1=NN(c2ccccc2)C(=O)C1C(=O)NC1CCNCC1` (stereo not shown) [compound 121, 3-methyl-5-oxo-1-phenyl-N-(4-piperidyl)-4H-pyrazole-4-carboxamide]: 1000 to 100000 nM.

Take `CC1=NN(c2ccccc2)C(=O)C1C(=O)Nc1cccc(CO)c1` (stereo not shown) [compound 111, N-(3-(hydroxymethyl)phenyl)-3-methyl-5-oxo-1-phenyl-4,5-dihydro-1H-pyrazole-4-carboxamide]: the 50% inhibitory concentration (IC50) is 1000 to 100000 nM. `CCc1cccc(NC(=O)C2C=NN(c3ccccc3)C2=O)c1` (stereo not shown) [compound 133, N-(3-ethylphenyl)-5-oxo-1-phenyl-4,5-dihydro-1H-pyrazole-4-carboxamide]: the 50% inhibitory concentration (IC50) lay within 100 to 1000 nM. Next, `CC1=NN(c2ccc(OC(C)(C)C)cc2)C(=O)C1C(=O)Nc1cccc(C(C)(F)F)c1` (stereo not shown) [compound 441]: 0.01 to 6 nM; `CC1=NN(c2cccc(C(=O)O)c2)C(=O)C1C(=O)Nc1cccc(-c2ncco2)c1` (stereo not shown) [compound 170]: 6 to 100 nM. In the case of `CC1=NN(c2cccc(C#CCNC(=O)COCCOCCOCCOCC(=O)Nc3ccc4c(c3)C(=O)N(C3CCC(=O)NC3=O)C4=O)c2)C(=O)C1C(=O)Nc1cccc(C(C)(F)F)c1` (stereo not shown) [compound 379] it was 0.01 to 6 nM; in that of `CC1=NN(c2ccc3ccn(C)c3c2)C(=O)C1C(=O)Nc1cccc(C(C)(F)F)c1` (stereo not shown) [compound 366], 0.01 to 6 nM. In turn, `CC1=NN(c2ccccc2)C(=O)C1C(=O)Nc1ccc(F)cc1` (stereo not shown) [compound 189, N-(4-fluorophenyl)-3-methyl-5-oxo-1-phenyl-4,5-dihydro-1H-pyrazole-4-carboxamide] registered an IC50 of 1000 to 100000 nM.

`CCCOc1ccc(N2N=C(C)C(C(=O)Nc3cccc(CC)c3)C2=O)cc1` (stereo not shown) [compound 158, N-(3-ethylphenyl)-3-methyl-5-oxo-1-(4-propoxyphenyl)-4,5-dihydro-1H-pyrazole-4-carboxamide] displayed an IC50 of 6 to 100 nM.

Molecule `CC(=O)c1cc(NC(=O)C2C(=O)N(c3ccc(OC(F)F)cc3)N=C2C)c2[nH]ccc2c1` (stereo not shown) [compound 408] displayed an IC50 of 100 to 1000 nM.

In general, IC50 refers to the concentration that inhibits the measured activity by half.
